Measured values taken from patent publication US11203600B2 (Denali Therapeutics Inc., priority 2017, dated 2021).

Target: GST-hRIPK1 (8-327) (Homo sapiens (Human), UniProt Q13546)
Test: Fluorescent Polarization Binding (FP Binding) assay, RIPK1
Conditions: 10 nM GST-hRIPK1 (8-327), 5 nM fluorescent-labeled ligand, RT, 30 min, mean of at least two independent experiments
In short: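 Compound displacement of 5 nM labelled ligand from 10 nM GST-hRIPK1 (8-327) was read as FP (531/595 nm) after 30 min at RT. Buffer: HEPES pH 7.5, NaCl, MgCl2, CHAPS, DTT, Pluronic; 1% DMSO final. IC50s were averaged over at least two independent runs.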

Chain of GST-hRIPK1 (8-327) (Q13546 8-327): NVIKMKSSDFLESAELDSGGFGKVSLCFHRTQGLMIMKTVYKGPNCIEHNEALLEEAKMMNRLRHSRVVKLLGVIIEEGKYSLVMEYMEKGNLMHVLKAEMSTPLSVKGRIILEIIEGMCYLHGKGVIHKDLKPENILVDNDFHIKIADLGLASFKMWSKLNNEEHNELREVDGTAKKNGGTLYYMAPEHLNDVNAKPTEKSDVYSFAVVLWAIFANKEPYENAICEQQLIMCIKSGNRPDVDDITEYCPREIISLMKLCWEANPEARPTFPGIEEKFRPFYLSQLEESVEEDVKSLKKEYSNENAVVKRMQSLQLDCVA

SMILES | IC50
CC(C)(C(=O)N1CCOc2cc(C(F)(F)F)ncc2C1)C(F)F [Example 66, 3,3-difluoro-2,2-dimethyl-1-[8-(trifluoromethyl)-3,5-dihydro-2H-pyrido[3,4-f][1,4]oxazepin-4-yl]propan-1-one] | > 1000 nM
CCC(C)(C(=O)N1CCOc2c(C#N)cncc2C1)C(F)(F)F (stereo not shown) [Example 67, 4-[2-methyl-2-(trifluoromethyl)butanoyl]-3,5-dihydro-2H-pyrido[3,4f][1,4]oxazepine-9-carbonitrile] | 0.1 to 100 nM
CC(C)(C(=O)N1CCOc2cc(F)ccc2C1)C(F)F [Example 68, 3,3-difluoro-1-(8-fluoro-3,5-dihydro-2H-1,4-benzoxazepin-4-yl)-2,2-dimethyl-propan-1-one] | 100 to 1000 nM
CC(C)(OC(F)(F)F)C(=O)N1CCOc2c(C#N)cncc2C1 [Example 69, 4-[2-methyl-2-(trifluoromethoxy)propanoyl]-3,5-dihydro-2H-pyrido[3,4-f][1,4]oxazepine-9-carbonitrile] | 0.1 to 100 nM
CC(C)(CC#N)C(=O)N1CCOc2c(F)cncc2C1 [Example 70, 4-(9-fluoro-2,3-dihydropyrido[3,4-f][1,4]oxazepin-4(5H)-yl)-3,3-dimethyl-4-oxobutanenitrile] | 100 to 1000 nM
CC(C#N)C(C)(C)C(=O)N1CCOc2c(F)cncc2C1 (stereo not shown) [Example 71, 4-(9-fluoro-2,3-dihydropyrido[3,4-f][1,4]oxazepin-4(5H)-yl)-2,3,3-trimethyl-4-oxobutanenitrile] | > 1000 nM
CC(C#N)C(C)(C)C(=O)N1CCOc2c(C#N)cncc2C1 (stereo not shown) [Example 72] | 100 to 1000 nM
CCC(C)(CC#N)C(=O)N1CCOc2c(F)cncc2C1 (stereo not shown) [Example 73, 3-(9-fluoro-3,5-dihydro-2H-pyrido[3,4-f][1,4]oxazepine-4-carbonyl)-3-methyl-pentanenitrile] | 100 to 1000 nM
CCC(C)(CC#N)C(=O)N1CCOc2c(C#N)cncc2C1 (stereo not shown) [Example 74, 4-[2-(cyanomethyl)-2-methyl-butanoyl]-3,5-dihydro-2H-pyrido[3,4-f][1,4]oxazepine-9-carbonitrile] | 0.1 to 100 nM
CCC(C)(C)C(=O)N1Cc2cncc(C#N)c2OC[C@H]1C [Example 75, (3R)-4-(2,2-dimethylbutanoyl)-3-methyl-3,5-dihydro-2H-pyrido[3,4-f][1,4]oxazepine-9-carbonitrile] | 0.1 to 100 nM
CCC(C)C(=O)N1Cc2cncc(C#N)c2OC[C@H]1C (stereo partly drawn) [Example 76, (3R)-3-methyl-4-(2-methylbutanoyl)-3,5-dihydro-2H-pyrido[3,4-f][1,4]oxazepine-9-carbonitrile] | 100 to 1000 nM
C[C@@H]1COc2c(C#N)cncc2CN1C(=O)C(C)(C)CF [Example 77, (3R)-4-(3-fluoro-2,2-dimethyl-propanoyl)-3-methyl-3,5-dihydro-2H-pyrido[3,4-f][1,4]oxazepine-9-carbonitrile] | 0.1 to 100 nM
C[C@@H]1COc2c(C#N)cncc2CN1C(=O)C(C)(C)C [Example 78, (3R)-4-(2,2-dimethylpropanoyl)-3-methyl-3,5-dihydro-2H-pyrido[3,4-f][1,4]oxazepine-9-carbonitrile] | 0.1 to 100 nM
CC(C)(C(=O)N1CCOc2c(F)cncc2C1)C(F)(F)F [Example 79, 3,3,3-trifluoro-1-(9-fluoro-3,5-dihydro-2H-pyrido[3,4-f][1,4]oxazepin-4-yl)-2,2-dimethyl-propan-1-one] | 100 to 1000 nM
CC(C)(C)C(=O)N1CCOc2c(F)cncc2C1 [Example 80, 1-(9-fluoro-3,5-dihydro-2H-pyrido[3,4-f][1,4]oxazepin-4-yl)-2,2-dimethyl-propan-1-one] | 100 to 1000 nM
CC(C)(C(=O)N1CCOc2c(C#N)cncc2C1)C1(O)CC1 [Example 81, 4-(2-(1-hydroxycyclopropyl)-2-methylpropanoyl)-2,3,4,5-tetrahydropyrido[3,4-f][1,4]oxazepine-9-carbonitrile] | > 1000 nM
CC(C)(C(=O)N1CCOc2c(C#N)cncc2C1)C1CC1C(F)F (stereo not shown) [Example 82, 4-[2-(-2-(difluoromethyl)cyclopropyl)-2-methyl-propanoyl]-3,5-dihydro-2H-pyrido[3,4-f][1,4]oxazepine-9-carbonitrile] | 100 to 1000 nM
CC(C)(C(=O)N1CCOc2c(C#N)cncc2C1)C1CC1C#N (stereo not shown) [Example 83, 4-[2-(2-cyanocyclopropyl)-2-methyl-propanoyl]-3,5-dihydro-2H-pyrido[3,4-f][1,4]oxazepine-9-carbonitrile] | > 1000 nM
CC(C)(C(=O)N1CCOc2c(C#N)cncc2C1)C1CC(F)(F)C1 [Example 84, 4-[2-(3,3-difluorocyclobutyl)-2-methyl-propanoyl]-3,5-dihydro-2H-pyrido[3,4-f][1,4]oxazepine-9-carbonitrile] | 0.1 to 100 nM
CC(C)(C(=O)N1CCOc2c(C#N)cncc2C1)C1CN(c2ncc(F)cn2)C1 [Example 85, 4-[2-[1-(5-fluoropyrimidin-2-yl)azetidin-3-yl]-2-methyl-propanoyl]-3,5-dihydro-2H-pyrido[3,4-f][1,4]oxazepine-9-carbonitrile] | 100 to 1000 nM
C[C@@H]1COc2c(C#N)cncc2CN1C(=O)C1(F)CCN(c2ncc(F)cn2)CC1 [Example 86, (3R)-4-[4-fluoro-1-(5-fluoropyrimidin-2-yl)piperidine-4-carbonyl]-3-methyl-3,5-dihydro-2H-pyrido[3,4-f][1,4]oxazepine-9-carbonitrile] | 0.1 to 100 nM
N#Cc1cncc2c1OCCN(C(=O)C1(F)CCN(c3cnccn3)CC1)C2 [Example 87, 4-(4-fluoro-1-pyrazin-2-yl-piperidine-4-carbonyl)-3,5-dihydro-2H-pyrido[3,4-f][1,4]oxazepine-9-carbonitrile] | 100 to 1000 nM
N#Cc1cncc2c1OCCN(C(=O)C1(F)CCN(c3ccncn3)CC1)C2 [Example 88, 4-(4-fluoro-1-pyrimidin-4-yl-piperidine-4-carbonyl)-3,5-dihydro-2H-pyrido[3,4-f][1,4]oxazepine-9-carbonitrile] | 100 to 1000 nM
CC(C)(C(=O)N1CCOc2c(C#N)cncc2C1)C1CCN(c2ncc(F)cn2)C1 (stereo not shown) [Example 90, 4-[2-[1-(5-fluoropyrimidin-2-yl)pyrrolidin-3-yl]-2-methyl-propanoyl]-3,5-dihydro-2H-pyrido[3,4-f][1,4]oxazepine-9-carbonitrile] | 0.1 to 100 nM
CC1CC(C(=O)N2CCOc3c(C#N)cncc3C2)CCN1c1ncc(F)cn1 (stereo not shown) [Example 91, 4-[1-(5-fluoropyrimidin-2-yl)-2-methyl-piperidine-4-carbonyl]-3,5-dihydro-2H-pyrido[3,4-f][1,4]oxazepine-9-carbonitrile] | 100 to 1000 nM
N#Cc1cncc2c1OCCN(C(=O)C1CCCN(c3ncc(F)cn3)CC1)C2 (stereo not shown) [Example 92, 4-[1-(5-fluoropyrimidin-2-yl)azepane-4-carbonyl]-3,5-dihydro-2H-pyrido[3,4-f][1,4]oxazepine-9-carbonitrile] | 100 to 1000 nM
N#Cc1cncc2c1OCCN(C(=O)C13CC(COc4ncc(F)cn4)(C1)C3)C2 [Example 93, 4-(3-(((5-fluoropyrimidin-2-yl)oxy)methyl)bicyclo[1.1.1]pentane-1-carbonyl)-2,3,4,5-tetrahydropyrido[3,4-f][1,4]oxazepine-9-carbonitrile] | 100 to 1000 nM
N#Cc1cncc2c1OCCN(C(=O)C1(C(F)F)CCN(c3ncc(F)cn3)CC1)C2 [Example 94, 4-[4-(difluoromethyl)-1-(5-fluoropyrimidin-2-yl)piperidine-4-carbonyl]-3,5-dihydro-2H-pyrido[3,4-f][1,4]oxazepine-9-carbonitrile] | 100 to 1000 nM
